# Experimental data reported in US9056874B2, “Complement pathway modulators and uses thereof” (NOVARTIS AG, priority 2012, dated 2015).
# Biological target: factor B (Homo sapiens, UniProt P00751)
# Experiment: factor B inhibition assay of Biological Example 1
# Format: biochemical
# Design: CVF-Bb complex prepared from purified cobra venom factor (1 μM), recombinant human complement factor B; made in house; host or cells: drosophila cells (factor B); E. coli (factor D used to form the complex)
# Details: IC50 (nM), assay of Biological Example 1 (Table 1)
# Chain of factor B (P00751 260-764 limits assumed): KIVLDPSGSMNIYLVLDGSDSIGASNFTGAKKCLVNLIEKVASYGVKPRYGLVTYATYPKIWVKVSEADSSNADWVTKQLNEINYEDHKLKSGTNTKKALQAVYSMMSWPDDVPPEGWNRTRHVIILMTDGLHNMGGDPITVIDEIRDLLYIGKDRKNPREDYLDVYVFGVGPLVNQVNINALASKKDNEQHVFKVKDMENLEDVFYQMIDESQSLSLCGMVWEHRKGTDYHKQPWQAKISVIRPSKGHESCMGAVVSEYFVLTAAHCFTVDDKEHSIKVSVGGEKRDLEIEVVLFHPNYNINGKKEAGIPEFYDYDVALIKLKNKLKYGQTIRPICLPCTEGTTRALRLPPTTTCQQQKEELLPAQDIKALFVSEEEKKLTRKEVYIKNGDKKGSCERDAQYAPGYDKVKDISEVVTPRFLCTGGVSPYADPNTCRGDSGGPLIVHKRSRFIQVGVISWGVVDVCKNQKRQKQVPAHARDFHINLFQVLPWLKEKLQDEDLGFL
# Chain of factor B (Q91132 23-649 partner limits assumed): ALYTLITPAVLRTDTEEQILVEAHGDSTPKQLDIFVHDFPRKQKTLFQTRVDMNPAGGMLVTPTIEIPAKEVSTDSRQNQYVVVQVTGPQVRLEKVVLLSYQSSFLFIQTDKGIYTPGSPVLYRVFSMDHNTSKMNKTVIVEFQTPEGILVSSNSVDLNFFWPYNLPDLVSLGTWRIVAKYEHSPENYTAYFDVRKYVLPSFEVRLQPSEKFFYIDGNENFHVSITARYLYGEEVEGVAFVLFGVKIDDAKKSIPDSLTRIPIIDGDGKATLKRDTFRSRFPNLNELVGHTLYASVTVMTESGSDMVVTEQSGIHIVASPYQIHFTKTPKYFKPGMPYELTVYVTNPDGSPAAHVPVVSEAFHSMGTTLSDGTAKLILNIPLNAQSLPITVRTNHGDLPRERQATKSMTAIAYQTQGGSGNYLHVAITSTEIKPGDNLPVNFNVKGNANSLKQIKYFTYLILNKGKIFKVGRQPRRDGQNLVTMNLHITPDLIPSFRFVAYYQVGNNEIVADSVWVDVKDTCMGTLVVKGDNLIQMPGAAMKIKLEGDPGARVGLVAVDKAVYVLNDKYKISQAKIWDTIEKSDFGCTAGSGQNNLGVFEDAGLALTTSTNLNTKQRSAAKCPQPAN
# Chain of factor B (Q91132 733-984 partner limits assumed): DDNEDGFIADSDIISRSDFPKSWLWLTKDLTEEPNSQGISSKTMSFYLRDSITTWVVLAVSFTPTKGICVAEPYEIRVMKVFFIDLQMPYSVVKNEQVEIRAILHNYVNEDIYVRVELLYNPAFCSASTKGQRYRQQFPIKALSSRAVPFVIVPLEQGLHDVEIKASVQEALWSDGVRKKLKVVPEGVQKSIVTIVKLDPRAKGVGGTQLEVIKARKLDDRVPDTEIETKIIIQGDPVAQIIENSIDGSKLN
# Chain of factor B (Q91132 1264-1642 partner limits assumed): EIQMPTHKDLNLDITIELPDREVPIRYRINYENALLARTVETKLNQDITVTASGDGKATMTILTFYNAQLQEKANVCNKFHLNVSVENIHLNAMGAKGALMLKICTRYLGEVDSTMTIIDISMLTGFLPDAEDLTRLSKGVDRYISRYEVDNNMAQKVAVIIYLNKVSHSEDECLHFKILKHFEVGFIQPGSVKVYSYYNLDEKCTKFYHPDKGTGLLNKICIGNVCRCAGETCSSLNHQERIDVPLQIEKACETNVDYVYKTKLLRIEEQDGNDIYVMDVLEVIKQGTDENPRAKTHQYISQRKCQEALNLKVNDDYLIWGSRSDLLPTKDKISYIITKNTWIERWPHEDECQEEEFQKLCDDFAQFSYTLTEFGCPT
row,SMILES,IC50
1,"CCOc1cc(C)c2[nH]ccc2c1C(O)(c1nc2cc(C#N)ccc2[nH]1)C(F)(F)F (single isomer, unassigned) [33-C b) (tr = 5.1 min), 2-(1-(5-ethoxy-7-methyl-1H-indol-4-yl)-2,2,2-trifluoro-1-hydroxyethyl)-1H-benzo[d]imidazole-5-carbonitrile]",5380 nM
2,"COc1cc(C)c2[nH]ccc2c1C(N)c1nc2cc(C#N)ccc2[nH]1 (single isomer, unassigned) [39-C b) (tr = 24.1 min), (−) or (+)-2-(amino(5-methoxy-7-methyl-1H-indol-4-yl)methyl)-1H-benzo[d]imidazole-5-carbonitrile]",8 nM
3,"COc1cc(C)c2[nH]ccc2c1C(N)c1nc2cc(C#N)ccc2[nH]1 (single isomer, unassigned) [39-C b) (tr = 30.6 min), (+) or (−)-2-(amino(5-methoxy-7-methyl-1H-indol-4-yl)methyl)-1H-benzo[d]imidazole-5-carbonitrile]",190 nM
4,"Cc1cc(Br)c(C(C)(O)c2nc3cc(C#N)ccc3[nH]2)c2cc[nH]c12 (single isomer, unassigned) [79-F b) (tr = 2.2 min), (+) or (−)-2-(1-(5-bromo-7-methyl-1H-indol-4-yl)-1-hydroxyethyl)-1H-benzo[d]imidazole-5-carbonitrile]",60 nM
5,"Cc1cc(Br)c(C(C)(O)c2nc3cc(C#N)ccc3[nH]2)c2cc[nH]c12 (single isomer, unassigned) [79-F b) (tr = 3.8 min), (−) or (+)-2-(1-(5-bromo-7-methyl-1H-indol-4-yl)-1-hydroxyethyl)-1H-benzo[d]imidazole-5-carbonitrile]",270 nM
6,"Cc1cc(C)c2[nH]cc3c2c1C(O)(c1nc2cc(C#N)ccc2[nH]1)CC3 (single isomer, unassigned) [93-F b) (tr = 7.2 min), (+) or (−)-2-(5-hydroxy-6,8-dimethyl-1,3,4,5-tetrahydrobenzo[cd]indol-5-yl)-1H-benzo[d]imidazole-5-carbonitrile]",33800 nM
7,"Cc1cc(C)c2[nH]cc3c2c1C(O)(c1nc2cc(C#N)ccc2[nH]1)CC3 (single isomer, unassigned) [93-F b) (tr = 10.2 min), (−) or (+)-2-(5-hydroxy-6,8-dimethyl-1,3,4,5-tetrahydrobenzo[cd]indol-5-yl)-1H-benzo[d]imidazole-5-carbonitrile]",950 nM
8,"CCc1cc(C)c2[nH]cc3c2c1C(O)(c1nc2cc(C#N)ccc2[nH]1)CC3 (single isomer, unassigned) [94 b) (tr = 4.5 min), (+) or (−)-2-(6-ethyl-5-hydroxy-8-methyl-1,3,4,5-tetrahydrobenzo[cd]indol-5-yl)-1H-benzo[d]imidazole-5-carbonitrile]",400 nM
9,"CCc1cc(C)c2[nH]cc3c2c1C(O)(c1nc2cc(C#N)ccc2[nH]1)CC3 (single isomer, unassigned) [94 b) (tr = 6.3 min), (−) or (+)-2-(6-ethyl-5-hydroxy-8-methyl-1,3,4,5-tetrahydrobenzo[cd]indol-5-yl)-1H-benzo[d]imidazole-5-carbonitrile]",1590 nM
10,"Cc1cc(C(C)C)c(C(N)c2nc3cc(C#N)ccc3[nH]2)c2cc[nH]c12 (single isomer, unassigned) [97 b) (tr = 10.5 min), (+) or (−)-2-(amino(5-isopropyl-7-methyl-1H-indol-4-yl)methyl)-1H-benzo[d]imidazole-5-carbonitrile]",3810 nM
11,"Cc1cc(C(C)C)c(C(N)c2nc3cc(C#N)ccc3[nH]2)c2cc[nH]c12 (single isomer, unassigned) [97 b) (tr = 19.4 min), (−) or (+)-2-(amino(5-isopropyl-7-methyl-1H-indol-4-yl)methyl)-1H-benzo[d]imidazole-5-carbonitrile]",70 nM
12,"Cc1cc(C)c2[nH]cc(-c3ccccc3)c2c1C(O)c1nc2cc(C#N)ccc2[nH]1 (single isomer, unassigned) [118-C b) (tr = 4.6 min), (+)- or (−)-2-((5,7-dimethyl-3-phenyl-1H-indol-4-yl)(hydroxy)methyl)-1H-benzo[d]imidazole-5-carbonitrile]",30 nM
13,"Cc1cc(C)c2[nH]cc(-c3ccccc3)c2c1C(O)c1nc2cc(C#N)ccc2[nH]1 (single isomer, unassigned) [118-C b) (tr = 7.9 min), (−) or (+)-2-((5,7-dimethyl-3-phenyl-1H-indol-4-yl)(hydroxy)methyl)-1H-benzo[d]imidazole-5-carbonitrile]",1750 nM
14,"Cc1cc(C)c2[nH]cc(-c3cnn(C)c3)c2c1C(O)c1nc2cc(C#N)ccc2[nH]1 (single isomer, unassigned) [119 b) (tr = 1.54 min), (+)- or (−)-2-((5,7-dimethyl-3-(1-methyl-1H-pyrazol-4-yl)-1H-indol-4-yl)(hydroxy)methyl)-1H-benzo[d]imidazole-5-carbonitrile]",130 nM
15,"Cc1cc(C)c2[nH]cc(-c3cnn(C)c3)c2c1C(O)c1nc2cc(C#N)ccc2[nH]1 (single isomer, unassigned) [119 b) (tr = 2.35 min), (−) or (+)-2-((5,7-dimethyl-3-(1-methyl-1H-pyrazol-4-yl)-1H-indol-4-yl)(hydroxy)methyl)-1H-benzo[d]imidazole-5-carbonitrile]",12600 nM
16,"Cc1cc(C)c2[nH]cc(-c3cccnc3)c2c1C(O)c1nc2cc(C#N)ccc2[nH]1 (single isomer, unassigned) [120 b) (tr = 2.25 min), (+)- or (−)-2-((5,7-dimethyl-3-(pyridin-3-yl)-1H-indol-4-yl)(hydroxy)methyl)-1H-benzo[d]imidazole-5-carbonitrile]",120 nM
17,"Cc1cc(C)c2[nH]cc(-c3cccnc3)c2c1C(O)c1nc2cc(C#N)ccc2[nH]1 (single isomer, unassigned) [120 b) (tr = 3.20 min), (−) or (+)-2-((5,7-dimethyl-3-(pyridin-3-yl)-1H-indol-4-yl)(hydroxy)methyl)-1H-benzo[d]imidazole-5-carbonitrile]",29000 nM
18,"Cc1cc(OC(F)F)c(C(C)(O)c2nc3cc(C#N)ccc3[nH]2)c2c(Cl)c[nH]c12 (single isomer, unassigned) [Example 7, (+) or (−)-2-(1-(3-chloro-5-(difluoromethoxy)-7-methyl-1H-indol-4-yl)-1-hydroxyethyl)-1H-benzo[d]imidazole-5-carbonitrile]",4240 nM
19,"COc1cc(C)c2[nH]cc(Cl)c2c1C(C)(O)c1nc2cc(C#N)ccc2[nH]1 (single isomer, unassigned) [Example 29-A, (−) or (+)-2-(1-(3-Chloro-5-methoxy-7-methyl-1H-indol-4-yl)-1-hydroxyethyl)-1H-benzo[d]imidazole-5-carbonitrile]",2030 nM
20,"COc1cc(C)c2[nH]cc(Cl)c2c1C(C)(O)c1nc2cc(C#N)ccc2[nH]1 (single isomer, unassigned) [Example 29-B, (+) or (−)-2-(1-(3-chloro-5-methoxy-7-methyl-1H-indol-4-yl)-1-hydroxyethyl)-1H-benzo[d]imidazole-5-carbonitrile]",2570 nM
21,"Cc1cc(OC(F)F)c(C(O)c2nc3cc(C#N)ccc3[nH]2)c2cc[nH]c12 (single isomer, unassigned; (+)) [3-B b) (+), (+)-2-((5-(difluoromethoxy)-7-methyl-1H-indol-4-yl)(hydroxy)methyl)-1H-benzo[d]imidazole-5-carbonitrile]",820 nM
22,"Cc1cc(OC(F)F)c(C(C)(N)c2nc3cc(C#N)ccc3[nH]2)c2cc[nH]c12 (single isomer, unassigned; (+)) [5-E b) (+), (+)-2-(1-amino-1-(5-(difluoromethoxy)-7-methyl-1H-indol-4-yl)ethyl)-1H-benzo[d]imidazole-5-carbonitrile]",420 nM
23,"COC(C)(c1nc2cc(C#N)ccc2[nH]1)c1c(OC(F)F)cc(C)c2[nH]ccc12 (single isomer, unassigned; (+)) [8-B b) (+), (+)-2-(1-(5-(difluoromethoxy)-7-methyl-1H-indol-4-yl)-1-methoxyethyl)-1H-benzo[d]imidazole-5-carbonitrile]",10 nM
24,"Cc1cc(S(C)(=O)=O)c(C(C)(N)c2nc3cc(C#N)ccc3[nH]2)c2cc[nH]c12 (single isomer, unassigned; (+)) [13-E b) (+), (+)-2-(1-Amino-1-(7-methyl-5-(methylsulfonyl)-1H-indol-4-yl)ethyl)-1H-benzo[d]imidazole-5-carbonitrile]",250 nM
25,"Cc1cc(S(C)(=O)=O)c(C(O)(c2nc3cc(C#N)ccc3[nH]2)C(F)(F)F)c2cc[nH]c12 (single isomer, unassigned; (+)) [14-D b) (+), (+)-2-(2,2,2-trifluoro-1-hydroxy-1-(7-methyl-5-(methylsulfonyl)-1H-indol-4-yl)ethyl)-1H-benzo[d]imidazole-5-carbonitrile]",8410 nM
26,"COC(c1nc2cc(C#N)ccc2[nH]1)(c1c(S(C)(=O)=O)cc(C)c2[nH]ccc12)C(F)(F)F (single isomer, unassigned; (+)) [15-D b) (+), (+)-2-(2,2,2-trifluoro-1-methoxy-1-(7-methyl-5-(methylsulfonyl)-1H-indol-4-yl)ethyl)-1H-benzo[d]imidazole-5-carbonitrile]",32700 nM
27,"CNC(c1nc2cc(C#N)ccc2[nH]1)(c1c(S(C)(=O)=O)cc(C)c2[nH]ccc12)C(F)(F)F (single isomer, unassigned; (+)) [16-B b) (+), (+)-2-(2,2,2-trifluoro-1-(7-methyl-5-(methylsulfonyl)-1H-indol-4-yl)-1-(methylamino)ethyl)-1H-benzo[d]imidazole-5-carbonitrile]",4740 nM
28,"Cc1cc(S(C)(=O)=O)c(C(N)(c2nc3cc(C#N)ccc3[nH]2)C(F)(F)F)c2cc[nH]c12 (single isomer, unassigned; (+)) [17-B b) (+), (+)-2-(1-amino-2,2,2-trifluoro-1-(7-methyl-5-(methylsulfonyl)-1H-indol-4-yl)ethyl)-1H-benzo[d]imidazole-5-carbonitrile]",6860 nM
